Results on 28 molecules are retold here after patent US20130116231A1, “TYROSINE KINASE INHIBITORS” (Merck Sharp & Dohme Corp., priority 2010, published 2013).

pIC50: −log10 of the molar value.

This assay deals with T1, human c-Met (Homo sapiens, UniProt P08581).
T1 construct: Recombinant GST-tagged cytosolic domains of human c-Met; 6xHis; made in house; host or cells: Sf9 or Sf21 insect cells (baculovirus)
The experiment in a line: in vitro kinase assay (homogeneous time-resolved tyrosine kinase assay, METKA). It is filed as biochemical. The note with it: recombinant GST-tagged c-Met cytosolic domain, HTRF, 50 μM MgATP; read-out: Biological Activity (METKA IC50) Activity Code. The text has this: Recombinant GST-tagged cytosolic domains of human c-Met and other receptor tyrosine kinases including mouse c-Met, human Ron, KDR, IGFR, EGFR, FGFR, Mer, TrkA and Tie2 are used to determine whether the compounds of the instant invention modulate the enzymatic activities of these kinases.
Soluble recombinant GST-tagged cytosolic domains of c-Met and other receptor tyrosine kinases are expressed in a baculovirus system (Pharmingen) according to a protocol recommended by the manufacturer. The c-DNA encoding each cytosolic domain is subcloned into a baculovirus expression vector (pGcGHLT-A, B or C, Pharmingen) containing an in frame 6× histidine tag and a GST tag. The resulting plasmid construct and BaculoGold baculovirus DNA (Pharmingen) are used to co-transfect Sf9 or Sf21 insect cells. After confirming expression of GST-tagged kinase fusion, a high titer recombinant baculovirus stock is produced, expression conditions are optimized, and a scaled up expression of rat KDR-GST fusion is performed. The fusion kinase is then purified from the insect cell lysate by affinity chromatography using glutathione agarose (Pharmingen). The purified protein is dialyzed against 50% glycerol, 2 mM DTT, 50 mM Tris-HCl (pH 7.4) and stored at −20° C. The protein concentrations of the fusion proteins are determined using Coomassie Plus Protein Assay (Pierce) with BSA as standard.
The kinase activities of c-Met and other kinases are measured using a modified version of the homogeneous time-resolved tyrosine kinase assay described by Park et al. (1999, Anal. Biochem. 269:94-104).
The procedure for determining the potency of a compound to inhibit c-Met kinase comprises the following steps: • 1. Prepare 3-fold serial diluted compound solutions in 100% dimethyl sulfoxide (DMSO) at 20× of the desired final concentrations in a 96 well plate. • 2. Prepare a master reaction mix containing 6.67 mM MgCl2, 133.3 mM NaCl, 66.7 mM Tris-HCl (pH 7.4), 0.13 mg/ml BSA, 2.67 mM dithiothreitol, 0.27 nM recombinant c-Met and 666.7 nM biotinylated synthetic peptide substrate (biotin-ahx-EQEDEPEGDYFEWLE-CONH2) (SEQ.ID.NO.:1). • 3. In a black assay plate, add 2.5 μl of compound solution (or DMSO) and 37.5 μl of master reaction mix per well. Initiate the kinase reaction by adding 10 μl of 0.25 mM MgATP per well. Allow the reactions to proceed for 80 min at room temperature. The final conditions for the reaction are 0.2 nM c-Met, 0.5 μM substrate, 50 μM MgATP, […], 100 mM NaCl, 2 mM DTT, 0.1 mg/ml BSA, 50 mM Tris (pH 7.4) and 5% DMSO. • 4. Stop the kinase reaction with 50 μl of Stop/Detection buffer containing 10 mM EDTA, 25 mM HEPES, 0.1% TRITON X-100, 0.126 μg/ml Eu-chelate labeled anti-phosphotyrosine antibody PY20 (cat. #AD0067, PerkinElmer) and 45 μg/ml Streptavidin-allophycocyanin conjugate (cat. #PJ25S, Prozyme). • 5. Read HTRF signals on a Victor reader (PerkinElmer) in HTRF mode after 60 min. • 6. IC50 is determined by fitting the observed relationship between compound concentration and HTRF signal with a 4-parameter logistic equation. Essentially the same procedure was used to determine the potency of compounds to inhibit mouse c-Met, human Ron, KDR, IGFR, EGFR, FGFR, Mer, TrkA and Tie2 except that the concentration of enzyme varied in individual assays (0.2 nM mouse c-Met; 2.5 nM Ron, 8 nM KDR; 0.24 nM IGFR; 0.24 nM EGFR; 0.14 nM FGFR; 16 nM Mer; 8 nM TrkA; 8 nM Tie2).

T1 sequence (P08581 956-1390 limits assumed): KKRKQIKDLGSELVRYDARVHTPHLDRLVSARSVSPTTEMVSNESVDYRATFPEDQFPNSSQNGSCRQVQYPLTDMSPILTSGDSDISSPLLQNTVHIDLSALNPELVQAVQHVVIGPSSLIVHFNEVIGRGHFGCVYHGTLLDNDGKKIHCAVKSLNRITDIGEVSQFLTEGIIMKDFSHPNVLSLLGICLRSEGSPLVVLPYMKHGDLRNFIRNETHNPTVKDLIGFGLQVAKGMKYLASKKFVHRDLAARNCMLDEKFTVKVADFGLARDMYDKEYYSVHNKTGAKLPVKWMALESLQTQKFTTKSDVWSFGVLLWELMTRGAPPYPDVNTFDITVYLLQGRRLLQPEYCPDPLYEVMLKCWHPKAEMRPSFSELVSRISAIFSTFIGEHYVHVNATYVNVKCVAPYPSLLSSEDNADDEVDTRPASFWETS

Regarding `CC(Oc1ccc2ncccc2c1)c1nn(-c2cccc(Br)c2)ccc1=O` (single isomer, unassigned) [Example 113, 1-(3-bromophenyl)-3-[1-(quinolin-6-yloxy)ethyl]pyridazin-4(1H)-one], the pIC50 was 5.52 to 6.00.

As for `CC(Oc1ccc2ncccc2c1)c1nn(-c2cccc(Br)c2)ccc1=O` (single isomer, unassigned) [Example 114, 1-(3-bromophenyl)-3-[1-(quinolin-6-yloxy)ethyl]pyridazin-4(1H)-one], the pIC50 is 5.52 to 6.00.

`CC(Cc1nn(-c2cnn(C)c2)ccc1=O)c1ccc2ncccc2c1` (single isomer, unassigned) [Example 125, 1-(1-methyl-1H-pyrazol-4-yl)-3-(2-quinolin-6-ylpropyl)pyridazin-4(1H)-one]: the pIC50 was above 7.00.

`CC(Cc1nn(-c2cnn(C)c2)ccc1=O)c1ccc2ncccc2c1` (single isomer, unassigned) [Example 126, 1-(1-methyl-1H-pyrazol-4-yl)-3-(2-quinolin-6-ylpropyl)pyridazin-4(1H)-one]: the pIC50 is 6.00 to 7.00.

On to `CC(Oc1nn(-c2cnn(C)c2)ccc1=O)c1ccc2ncccc2c1` (single isomer, unassigned) [Example 138, 1-(1-methyl-1H-pyrazol-4-yl)-3-(1-quinolin-6-ylethoxy)pyridazin-4(1H)-one], for which the pIC50 was 6.00 to 7.00.

`CC(Oc1nn(-c2cnn(C)c2)ccc1=O)c1ccc2ncccc2c1` (single isomer, unassigned) [Example 139, 1-(1-methyl-1H-pyrazol-4-yl)-3-(1-quinolin-6-ylethoxy)pyridazin-4(1H)-one]: the pIC50 is 6.00 to 7.00.

For `COc1cnc2ccc(C(C)Oc3nn(-c4cnn(C)c4)ccc3=O)cc2c1` (single isomer, unassigned) [Example 140, 3-[1-(3-methoxyquinolin-6-yl)ethoxy]-1-(1-methyl-1H-pyrazol-4-yl)pyridazin-4(1H)-one], the pIC50 is above 7.00.

With `CCOc1cnc2ccc(C(C)Oc3nn(-c4cnn(C)c4)ccc3=O)cc2c1` (single isomer, unassigned) [Example 141, 3-[1-(3-ethoxyquinolin-6-yl)ethoxy]-1-(1-methyl-1H-pyrazol-4-yl)pyridazin-4(1H)-one], the pIC50 is above 7.00.

As to `CCOc1cnc2ccc(C(C)Oc3nn(-c4cnn(C)c4)ccc3=O)cc2c1` (single isomer, unassigned) [Example 142, 3-[1-(3-ethoxyquinolin-6-yl)ethoxy]-1-(1-methyl-1H-pyrazol-4-yl)pyridazin-4(1H)-one], the pIC50 is 5.52 to 6.00.

Take `COCCOc1cnc2ccc(C(C)Oc3nn(-c4cnn(C)c4)ccc3=O)cc2c1` (single isomer, unassigned) [Example 143, 3-{1-[3-(2-methoxyethoxy)quinolin-6-yl]ethoxy}-1-(1-methyl-1H-pyrazol-4-yl)pyridazin-4(1H)-one]: the pIC50 was above 7.00.

Consider `COCCOc1cnc2ccc(C(C)Oc3nn(-c4cnn(C)c4)ccc3=O)cc2c1` (single isomer, unassigned) [Example 144, 3-{1-[3-(2-methoxyethoxy)quinolin-6-yl]ethoxy}-1-(1-methyl-1H-pyrazol-4-yl)pyridazin-4(1H)-one], for which the pIC50 is 6.00 to 7.00.

As for `COc1ccnc2ccc(C(C)Oc3nn(-c4cnn(C)c4)ccc3=O)cc12` (single isomer, unassigned) [Example 145, 3-[1-(4-methoxyquinolin-6-yl)ethoxy]-1-(1-methyl-1H-pyrazol-4-yl)pyridazin-4(1H)-one], the negative logarithm of the IC50 (pIC50) is above 7.00.

Turning to `CCn1cc(-n2ccc(=O)c(OC(C)c3ccc4nccc(OC)c4c3)n2)cn1` (single isomer, unassigned) [Example 146, 1-(1-ethyl-1H-pyrazol-4-yl)-3-[1-(4-methoxyquinolin-6-yl)ethoxy]pyridazin-4(1H)-one], the pIC50 was above 7.00.

Consider `Cn1cc(-n2ccc(=O)c(COc3ccc4ncccc4c3)n2)cn1` [Example 1, 1-(1-Methyl-1H-pyrazol-4-yl)-3-[(quinolin-6-yloxy)methyl]pyridazin-4(1H)-one], for which the negative logarithm of the IC50 (pIC50) was above 7.00.

As to `Cn1cc(-n2ccc(=O)c(COc3cccc4cnccc34)n2)cn1` [Example 2, 3-[(isoquinolin-5-yloxy)methyl]-1-(1-methyl-1H-pyrazol-4-yl)pyridazin-4(1H)-one], the pIC50 is 5.52 to 6.00.

As to `N#Cc1cccc(-n2ccc(=O)c(COc3ccc4ncccc4c3)n2)c1` [Example 3, 3-{4-oxo-3-[(quinolin-6-yloxy)methyl]pyridazin-1(4H)-yl}benzonitrile], the pIC50 is above 7.00.

For the molecule `N#Cc1cc(F)cc(-n2ccc(=O)c(COc3ccc4ncccc4c3)n2)c1` [Example 4, 3-fluoro-5-{4-oxo-3-[(quinolin-6-yloxy)methyl]pyridazin-1(4H)-yl}benzonitrile], the pIC50 is above 7.00.

On to `N#Cc1ccc(-n2ccc(=O)c(COc3ccc4ncccc4c3)n2)cc1` [Example 5, 4-{4-oxo-3-[(quinolin-6-yloxy)methyl]pyridazin-1(4H)-yl}benzonitrile], for which the pIC50 is above 7.00.

As for `N#Cc1cc(Cl)cc(-n2ccc(=O)c(COc3ccc4ncccc4c3)n2)c1` [Example 6, 3-chloro-5-{4-oxo-3-[(quinolin-6-yloxy)methyl]pyridazin-1(4H)-yl}benzonitrile], the pIC50 is above 7.00.

Take `O=c1ccn(-c2cc(F)cc(F)c2)nc1COc1ccc2ncccc2c1` [Example 7, 1-(3,5-difluorophenyl)-3-[(quinolin-6-yloxy)methyl] pyridazin-4(1H)-one]: the pIC50 is above 7.00.

Regarding `O=c1ccn(-c2ccc(F)c(F)c2)nc1COc1ccc2ncccc2c1` [Example 8, 1-(3,4-difluorophenyl)-3-[(quinolin-6-yloxy)methyl] pyridazin-4(1H)-one], the pIC50 is above 7.00.

Take `Cn1cc(-n2ccc(=O)c(COc3ccc([N+](=O)[O-])cc3)n2)cn1` [Example 9, 1-(1-methyl-1H-pyrazol-4-yl)-3-[(4-nitrophenoxy)methyl] pyridazin-4(1H)-one]: the negative logarithm of the IC50 (pIC50) is 5.52 to 6.00.

For the molecule `O=c1ccn(-c2cc(F)c(F)c(F)c2)nc1COc1ccc2ncccc2c1` [Example 10, 3-[(quinolin-6-yloxy)methyl]-1-(3,4,5-trifluorophenyl) pyridazin-4(1H)-one], the pIC50 was above 7.00.

As to `Cn1cc(-n2ccc(=O)c(COc3ccc4nccnc4c3)n2)cn1` [Example 11, 1-(1-methyl-1H-pyrazol-4-yl)-3-[(quinoxalin-6-yloxy)methyl] pyridazin-4(1H)-one], the pIC50 was above 7.00.

Regarding `CCOC(=O)c1ccc(OCc2nn(-c3cnn(C)c3)ccc2=O)cc1` [Example 12, ethyl 4-{[1-(1-methyl-1H-pyrazol-4-yl)-4-oxo-1,4-dihydropyridazin-3-yl]methoxy}benzoate], the pIC50 was 6.00 to 7.00.

For the molecule `Cc1ccc2cc(OCc3nn(-c4cnn(C)c4)ccc3=O)ccc2n1` [Example 13], the pIC50 was 6.00 to 7.00.

As for `Cn1cc(-n2ccc(=O)c(COc3ccc4nc(C#N)sc4c3)n2)cn1` [Example 14, 6-{[1-(1-methyl-1H-pyrazol-4-yl)-4-oxo-1,4-dihydropyridazin-3-yl]methoxy}-1,3-benzothiazole-2-carbonitrile], the pIC50 is 5.52 to 6.00.

`Cn1cc(C(=O)Nc2cccc(OCc3nn(-c4cnn(C)c4)ccc3=O)c2)cn1` [Example 15, 1-Methyl-N-(3-{[1-(1-methyl-1H-pyrazol-4-yl)-4-oxo-1,4-dihydropyridazin-3-yl]methoxy}phenyl)-1H-pyrazole-4-carboxamide]: the pIC50 was 5.52 to 6.00.
